Experimental data: the supplement of paper PMC10790783

Test system: MRC5-hT fibroblasts expressing HCMV UL38 (glucose-free medium)
Test: rescue of cell number (AUC of dose-response) relative to untreated glucose-free control; higher = stronger protection from glucose-starvation-induced cell death
Conditions: glucose: 0 (glucose-free DMEM); 96 h; dose range 0.001-20, 10-point curve µM
Method: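 MRC5-hT fibroblasts stably expressing HCMV UL38 were seeded in 384-well plates, serum-starved for 24 h, switched to glucose-free DMEM, and pin-transferred with a metabolism-focused compound library as 10-point dose curves (1 nM to 20 µM; n=2). Nuclei were counted by Hoechst imaging 96 h after glucose withdrawal.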

In the case of Cc1cnc(Nc2ccc(OCCN3CCCC3)cc2)nc1Nc1cccc(S(=O)(=O)NC(C)(C)C)c1 [Fedratinib], the “rescue of cell number” value is reported as 40.7%.
For Cc1cc2c(C(C)C)c(O)c(O)c(C=O)c2c(O)c1-c1c(C)cc2c(C(C)C)c(O)c(O)c(C=O)c2c1O [Gossypol], the “rescue of cell number” value was 43.9%.
In the case of O=C(O)CSc1nnc(Br)n1-c1ccc(C2CC2)c2ccccc12 [Lesinurad], the “rescue of cell number” value is reported as -28.1%.
With O=C(/C=C/c1cccnc1)NCCCCC1CCN(C(=O)c2ccccc2)CC1 [FK_866] the “rescue of cell number” value was 26.9%.
O=S(=O)(O)CCSSCCS(=O)(=O)O [Dimesna] was tested, and the “rescue of cell number” value was -37.8%.
CN(C/C=C/C#CC(C)(C)C)Cc1cccc2ccccc12 [Terbinafine_HCl] was tested, and the “rescue of cell number” value was -15.4%.
For CCCCC[C@H](O)CC(=O)CCc1ccc(O)c(OC)c1 [[6]-Gingerol], the “rescue of cell number” value was -29.7%.
In the case of O=C(O)CN1C(=O)c2cccc3cccc(c23)C1=O [Alrestatin], the “rescue of cell number” value is reported as 4.91%.
For Cc1c(-c2ccc(-c3ccccc3F)cc2)nc2ccc(F)cc2c1C(=O)O [Brequinar], the “rescue of cell number” value was 126%.
In the case of CC1=CC(=O)c2ccccc2C1=O [Menadione], the “rescue of cell number” value is reported as 23.5%.
In the case of OC[C@H]1NC[C@H](O)[C@@H](O)[C@@H]1O [1_Deoxynojirimycin], the “rescue of cell number” value is reported as 5.66%.
In the case of O=C(NNc1ccccc1)c1ccncc1 [PluriSln_1], the “rescue of cell number” value is reported as 41.4%.
Fc1ccc(CNc2ncnc3ccc(F)cc23)cc1 [Spautin_1] was tested, and the “rescue of cell number” value was 2.13%.
In the case of C=C(C)[C@H]1Cc2c(ccc3c2O[C@@H]2COc4cc(OC)c(OC)cc4[C@@H]2C3=O)O1 [Rotenone], the “rescue of cell number” value is reported as 13.7%.
For O=C(O)c1ccc2cc(-c3ccc(O)c(C45CC6CC(CC(C6)C4)C5)c3)ccc2c1 [CD_437], the “rescue of cell number” value was 25.4%.
For O=c1c2ccccc2[se]n1-c1ccccc1 [Ebselen], the “rescue of cell number” value was -18.8%.
CCOC(=O)c1sc(NC(=O)c2ccco2)c(SC#N)c1C [CBR 5884] was tested, and the “rescue of cell number” value was 88%.
NOCC[C@H](N)C(=O)O [L_Canaline] was tested, and the “rescue of cell number” value was 68%.
For O[C@H]1[C@H](O)[C@@H](O)CN2CC[C@H](O)[C@H]12 [Castanospermine], the “rescue of cell number” value was -30.6%.
In the case of Cc1nc2ccc(C(=O)N3CCC4(CC3)CC(=O)c3c(cnn3C(C)C)C4)cc2[nH]1, the “rescue of cell number” value is reported as 31.8%.
Cc1nc(=O)c2cc(CN(C)c3ccc(C(=O)N[C@@H](CCC(=O)O)C(=O)O)s3)ccc2[nH]1 [Raltitrexed] was tested, and the “rescue of cell number” value was -26.7%.
CC1(C)CCC2=C(O1)c1ccccc1C(=O)C2=O [beta_Lapachone] was tested, and the “rescue of cell number” value was 70.8%.
With Oc1cc(Cl)ccc1Oc1ccc(Cl)cc1Cl [Triclosan] the “rescue of cell number” value was 5.01%.
With Nc1ccn([C@H]2CC[C@@H](CO)O2)c(=O)n1 [Zalcitabine] the “rescue of cell number” value was 9.86%.
For CN(N=O)C(=O)N[C@@H](C=O)[C@@H](O)[C@H](O)[C@H](O)CO [Streptozocin], the “rescue of cell number” value was 33.4%.
For Nc1nc2c(c(=O)[nH]1)C[C@@H](CCc1ccc(C(=O)N[C@@H](CCC(=O)O)C(=O)O)cc1)CN2 [Lometrexol], the “rescue of cell number” value was -30.2%.
For O=C(O)C[C@@]1(O)C[C@@H](CCCCCCc2ccc(Cl)cc2Cl)OC1=O, the “rescue of cell number” value was 45.4%.
With CC[C@H](C)C(=O)O[C@H]1C[C@H](O)C=C2C=C[C@H](C)[C@H](CC[C@@H](O)C[C@@H](O)CC(=O)O)[C@H]21 [Pravastatin] the “rescue of cell number” value was -35.3%.
In the case of C[S+]([O-])CCCCN=C=S (centres undefined) [Sulforaphane], the “rescue of cell number” value is reported as -10.7%.
In the case of Nc1nc(F)nc2c1ncn2[C@@H]1O[C@H](CO)[C@@H](O)[C@@H]1O [Fludarabine], the “rescue of cell number” value is reported as 103%.
For C[C@H]1[C@H](OC(=O)CCC(=O)O)O[C@@H]2O[C@@]3(C)CC[C@H]4[C@H](C)CC[C@@H]1[C@@]24OO3 [Artesunate], the “rescue of cell number” value was 9.86%.
O=C1CSC(c2ccccc2Cl)c2cc(Cl)ccc2N1 (centres undefined) was tested, and the “rescue of cell number” value was 3.61%.
In the case of O=C(N[C@H](CO)[C@H](O)c1ccc([N+](=O)[O-])cc1)C(Cl)Cl [Chloramphenicol], the “rescue of cell number” value is reported as -10.7%.
For C=CCN(C)CCCCCCOc1ccc(C(=O)c2ccc(Br)cc2)c(F)c1 [Ro_48_8071], the “rescue of cell number” value was -2.22%.
Cc1nccn1-c1ccc(Sc2cccc(C3(C(N)=O)CCOCC3)c2)cc1 was tested, and the “rescue of cell number” value was 13%.
With CN(CCOc1ccc(CC2SC(=O)NC2=O)cc1)c1ccccn1 (centres undefined) [Rosiglitazone] the “rescue of cell number” value was 4.26%.
NC(=O)c1ncn([C@@H]2O[C@H](CO)[C@@H](O)[C@H]2O)c1O [Mizoribine] was tested, and the “rescue of cell number” value was -26.6%.
For CC[C@@H]1/C=C/C=C/C[C@H](C)[C@H](O)[C@](C)(O)C(=O)[C@H](C)[C@@H](O)[C@H](C)C(=O)[C@H](C)[C@@H](O)[C@H](C)/C=C/C(=O)O[C@H]2[C@@H](C)[C@@H](CC1)O[C@@]1(CC[C@@H](C)[C@@H](C[C@H](C)O)O1)[C@@H]2C [Oligomycin_A], the “rescue of cell number” value was 40.6%.
For CN(C)CC[C@H](CSc1ccccc1)Nc1ccc(S(=O)(=O)NC(=O)c2ccc(N3CCN(Cc4ccccc4-c4ccc(Cl)cc4)CC3)cc2)cc1[N+](=O)[O-] [ABT_737], the “rescue of cell number” value was -33.6%.
With CN1C(=O)[C@@]23C[C@]4([C@]56C[C@@]78SS[C@@](CO)(C(=O)N7[C@H]5Nc5ccccc56)N(C)C8=O)c5ccccc5N[C@@H]4N2C(=O)[C@]1(CO)SS3 [Chaetocin] the “rescue of cell number” value was 11.4%.
In the case of Cc1cccc(CC(=O)N2CCc3c2ccc(-c2cn(C)c4ncnc(N)c24)c3F)n1, the “rescue of cell number” value is reported as 70.7%.
In the case of Cc1oncc1C(=O)Nc1ccc(C(F)(F)F)cc1 [Leflunomide], the “rescue of cell number” value is reported as 9.81%.
For O=C(O)[C@@]1(CCCCCCOc2ccc(Cl)cc2)CO1 [(R)_(+)_Etomoxir_sodium_salt], the “rescue of cell number” value was 17.7%.
With NCCCNCCSP(=O)(O)O [Amifostine] the “rescue of cell number” value was 110%.
CC(C)c1nc(N(C)S(C)(=O)=O)nc(-c2ccc(F)cc2)c1/C=C/[C@@H](O)C[C@@H](O)CC(=O)O [Rosuvastatin] was tested, and the “rescue of cell number” value was 45.3%.
In the case of NS(=O)(=O)c1cc(C(=O)O)c(NCc2ccco2)cc1Cl [Furosemide], the “rescue of cell number” value is reported as -15.9%.
In the case of CCCCCCCCCCCCCCCCOc1nc2ccc(C)cc2c(=O)o1 [Cetilistat], the “rescue of cell number” value is reported as -5.21%.
Cc1cn[nH]c1 [Fomepizole] was tested, and the “rescue of cell number” value was 81.1%.
N#Cc1ccnc(N2C(=O)CC[C@H]2C(=O)N(c2cncc(F)c2)[C@H](C(=O)NC2CC(F)(F)C2)c2ccccc2Cl)c1 [AG-120] was tested, and the “rescue of cell number” value was -8.45%.
CN1Cc2c(N)cccc2C(c2ccccc2)C1 (centres undefined) [Nomifensine] was tested, and the “rescue of cell number” value was -5.61%.
With Cc1ccccc1C(C(=O)NC1CCCCC1)N(C(=O)Cn1ccnc1C)c1cccc(F)c1 (centres undefined) [AGI_5198] the “rescue of cell number” value was 48.3%.
O=C(O)Cc1ccccc1Nc1c(Cl)cccc1Cl [Diclofenac] was tested, and the “rescue of cell number” value was -20%.
For CC(=O)N[C@H]1[C@@H](O[C@@H]2O[C@H](CC(O)[C@H]3O[C@@H](n4ccc(=O)[nH]c4=O)[C@H](O)[C@@H]3O)[C@H](O)[C@H](O)[C@H]2NC(=O)/C=C/CC(C)C)O[C@H](CO)[C@@H](N)[C@@H]1O (some centres undefined) [Tunicamycin], the “rescue of cell number” value was 3.6%.
For Cc1c(O)c(=O)ccn1C [Deferiprone], the “rescue of cell number” value was 25.4%.
With CCCCCCCCCCCCCCOc1ccc(C(=O)O)o1 [TOFA] the “rescue of cell number” value was 48.9%.
For COc1ccc(N(C(=O)CCl)C(C(=O)NCCc2ccccc2)c2cccs2)cc1Cl (centres undefined) [ML-162], the “rescue of cell number” value was 15.3%.
C/C(O)=C(\C#N)C(=O)Nc1ccc(C(F)(F)F)cc1 [Teriflunomide] was tested, and the “rescue of cell number” value was -6.67%.
In the case of CC[n+]1c(-c2ccccc2)c2cc(N)ccc2c2ccc(N)cc21 [Ethidium_Bromide], the “rescue of cell number” value is reported as 97.6%.
For [N-]=[N+]=CC(=O)OC[C@H](N)C(=O)O [Azaserine], the “rescue of cell number” value was -20.4%.
